ChEMBL document CHEMBL4359837, “Discovery of 2-(4-Chloro-3-(trifluoromethyl)phenyl)-N-(4-((6,7-dimethoxyquinolin-4-yl)oxy)phenyl)acetamide (CHMFL-KIT-64) as a Novel Orally Available Potent Inhibitor against Broad-Spectrum Mutants of c-KIT Kinase for Gastrointestinal Stromal Tumors” (J Med Chem, 2019)
The source made the active and inactive calls. The calls are words filed in the database; no cut-off is given here.

Tests used:
[1] = molecular target: Mast/stem cell growth factor receptor Kit (Mus musculus) (UniProt P05532); experiment: Inhibition of c-KIT in mouse BAF3(transformed) cells assessed as growth inhibition after 72 hrs by CCK8 assay
[2] = Growth inhibition of mouse BAF3 cells measured after 72 hrs by CCK8 assay; type: cell-based
[3] = test system: Mast/stem cell growth factor receptor Kit (Homo sapiens), P10721 [T670I]; conditions: Mus musculus
Description: Inhibition of c-KIT T670I mutant in mouse BAF3(transformed) cells assessed as growth inhibition after 72 hrs by CCK8 assay

[4] = test system: Mast/stem cell growth factor receptor Kit (Homo sapiens), P10721 [V559G]; conditions: Mus musculus
Description: Inhibition of c-KIT V559G mutant in mouse BAF3(transformed) cells assessed as growth inhibition after 72 hrs by CCK8 assay

[5] = organism: Mus musculus; experiment: Inhibition of c-KIT T670E mutant in mouse BAF3(transformed) cells assessed as growth inhibition after 72 hrs by CCK8 assay
[6] = test system: Mast/stem cell growth factor receptor Kit (Homo sapiens), P10721 [K642E]
[7] = test system: Mast/stem cell growth factor receptor Kit (Homo sapiens), P10721 [UNDEFINED MUTATION]; conditions: GISTT1
Description: Inhibition of c-KIT 560 to 578 deletion mutant in human GISTT1 cells assessed as growth inhibition after 72 hrs by CCK8 assay

[8] = test system: Mast/stem cell growth factor receptor Kit (Homo sapiens), P10721 [V559A]; conditions: Mus musculus
Description: Inhibition of c-KIT V559A mutant in mouse BAF3(transformed) cells assessed as growth inhibition after 72 hrs by CCK8 assay

[9] = organism: Mus musculus; experiment: Inhibition of c-KIT D816E mutant in mouse BAF3(transformed) cells assessed as growth inhibition after 72 hrs by CCK8 assay
[10] = test system: Mast/stem cell growth factor receptor Kit (Homo sapiens), P10721 [D820Y]; conditions: Mus musculus
Description: Inhibition of c-KIT D820Y mutant in mouse BAF3(transformed) cells assessed as growth inhibition after 72 hrs by CCK8 assay

[11] = organism: Mus musculus; experiment: Inhibition of c-KIT S709F mutant in mouse BAF3(transformed) cells assessed as growth inhibition after 72 hrs by CCK8 assay
[12] = test system: GISTT1; type: functional, Homo sapiens; conditions: Mus musculus, GISTT1, po, 672 h; read-out: TGI
[13] = test system: GISTT1; type: functional, Homo sapiens
[14] = test system: Mast/stem cell growth factor receptor Kit (Homo sapiens), P10721 [Y823D]; conditions: Mus musculus
Description: Inhibition of c-KIT Y823D mutant in mouse BAF3(transformed) cells assessed as growth inhibition after 72 hrs by CCK8 assay

[15] = organism: Mus musculus; experiment: Inhibition of c-KIT D820G mutant in mouse BAF3(transformed) cells assessed as growth inhibition after 72 hrs by CCK8 assay
[16] = test system: GISTT1; type: functional, cell-based; conditions: Homo sapiens
[17] = Growth inhibition of human GIST48B cells after 72 hrs by CCK8 assay; type: functional
[18] = organism: Mus musculus; experiment: Inhibition of c-KIT T670I/V559D double mutant in mouse BAF3(transformed) cells assessed as growth inhibition after 72 hrs by CCK8 assay
[19] = organism: Mus musculus; experiment: Inhibition of c-KIT V654A/V559D double mutant in mouse BAF3(transformed) cells assessed as growth inhibition after 72 hrs by CCK8 assay
[20] = molecular target: T1, Platelet-derived growth factor receptor alpha (Homo sapiens, UniProt P16234); type: cell-based; conditions: GISTT1
[21] = molecular target: T1, Platelet-derived growth factor receptor alpha; type: cell-based; conditions: GISTT1; remark: listed apart in the source
[22] = molecular target: T1, Platelet-derived growth factor receptor alpha; type: cell-based; conditions: GISTT1; remark: listed apart in the source
[23] = molecular target: T1, Platelet-derived growth factor receptor alpha; type: cell-based; conditions: GISTT1; remark: listed apart in the source
[24] = molecular target: T1, Platelet-derived growth factor receptor alpha; type: cell-based; conditions: GISTT1; remark: listed apart in the source
[25] = molecular target: T1, Platelet-derived growth factor receptor alpha; type: cell-based; conditions: GISTT1; remark: listed apart in the source
[26] = molecular target: T1, Platelet-derived growth factor receptor alpha; type: cell-based; conditions: GISTT1; remark: listed apart in the source

Mast/stem cell growth factor receptor Kit (Homo sapiens), P10721 [T670I], sequence (P10721 whole entry T670I): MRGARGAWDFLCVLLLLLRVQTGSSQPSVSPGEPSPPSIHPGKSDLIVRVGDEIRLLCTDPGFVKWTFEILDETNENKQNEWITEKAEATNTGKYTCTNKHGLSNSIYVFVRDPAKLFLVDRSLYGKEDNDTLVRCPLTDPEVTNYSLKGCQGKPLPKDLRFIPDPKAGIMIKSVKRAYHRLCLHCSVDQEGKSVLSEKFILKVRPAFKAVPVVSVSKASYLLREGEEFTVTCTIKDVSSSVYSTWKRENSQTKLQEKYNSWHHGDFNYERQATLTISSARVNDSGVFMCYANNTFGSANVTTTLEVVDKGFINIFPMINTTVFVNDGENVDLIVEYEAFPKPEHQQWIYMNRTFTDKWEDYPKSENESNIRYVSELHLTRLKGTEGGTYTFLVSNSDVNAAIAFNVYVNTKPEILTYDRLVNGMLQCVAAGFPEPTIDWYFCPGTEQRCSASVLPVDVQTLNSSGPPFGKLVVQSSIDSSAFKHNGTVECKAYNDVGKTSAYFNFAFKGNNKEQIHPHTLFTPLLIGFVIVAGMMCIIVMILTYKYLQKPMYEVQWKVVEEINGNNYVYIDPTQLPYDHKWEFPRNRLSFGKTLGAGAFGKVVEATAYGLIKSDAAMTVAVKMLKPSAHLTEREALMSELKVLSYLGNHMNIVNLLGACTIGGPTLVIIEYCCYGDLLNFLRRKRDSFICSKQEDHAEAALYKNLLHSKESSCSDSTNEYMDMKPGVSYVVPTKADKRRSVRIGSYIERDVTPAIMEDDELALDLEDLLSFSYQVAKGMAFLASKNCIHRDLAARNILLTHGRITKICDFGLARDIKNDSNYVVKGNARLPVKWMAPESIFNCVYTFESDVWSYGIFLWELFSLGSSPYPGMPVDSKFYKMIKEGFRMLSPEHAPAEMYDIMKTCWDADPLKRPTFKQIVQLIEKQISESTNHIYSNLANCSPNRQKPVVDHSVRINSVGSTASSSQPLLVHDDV
T1 sequence (P16234 whole entry): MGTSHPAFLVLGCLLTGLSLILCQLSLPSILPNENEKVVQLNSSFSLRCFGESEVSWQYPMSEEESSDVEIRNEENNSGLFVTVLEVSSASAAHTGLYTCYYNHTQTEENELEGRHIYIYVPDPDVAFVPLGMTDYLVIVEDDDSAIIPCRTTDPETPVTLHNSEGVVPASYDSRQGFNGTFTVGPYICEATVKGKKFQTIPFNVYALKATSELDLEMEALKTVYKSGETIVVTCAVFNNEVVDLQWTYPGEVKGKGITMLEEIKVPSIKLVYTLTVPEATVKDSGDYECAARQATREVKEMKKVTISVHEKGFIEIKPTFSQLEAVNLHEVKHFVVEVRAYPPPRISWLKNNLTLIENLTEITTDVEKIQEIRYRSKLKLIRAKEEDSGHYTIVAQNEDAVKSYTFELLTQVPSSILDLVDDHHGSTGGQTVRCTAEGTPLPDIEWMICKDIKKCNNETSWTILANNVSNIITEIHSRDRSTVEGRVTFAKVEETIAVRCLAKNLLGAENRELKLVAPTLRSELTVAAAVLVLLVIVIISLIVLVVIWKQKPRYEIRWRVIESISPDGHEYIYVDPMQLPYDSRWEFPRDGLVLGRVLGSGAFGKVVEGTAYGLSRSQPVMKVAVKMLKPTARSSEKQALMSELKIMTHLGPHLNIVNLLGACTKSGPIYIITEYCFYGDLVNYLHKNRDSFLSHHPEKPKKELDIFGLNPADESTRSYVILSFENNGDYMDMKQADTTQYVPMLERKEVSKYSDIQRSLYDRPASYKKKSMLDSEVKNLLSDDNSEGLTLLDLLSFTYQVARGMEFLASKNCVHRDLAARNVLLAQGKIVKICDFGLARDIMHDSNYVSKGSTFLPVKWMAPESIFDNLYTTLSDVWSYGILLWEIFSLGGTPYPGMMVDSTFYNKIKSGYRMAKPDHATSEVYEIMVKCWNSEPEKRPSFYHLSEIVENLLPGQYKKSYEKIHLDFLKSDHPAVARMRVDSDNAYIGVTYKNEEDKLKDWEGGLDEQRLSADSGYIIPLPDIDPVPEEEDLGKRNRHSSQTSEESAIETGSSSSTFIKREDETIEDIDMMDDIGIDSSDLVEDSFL
Mast/stem cell growth factor receptor Kit (Mus musculus), sequence (P05532 whole entry): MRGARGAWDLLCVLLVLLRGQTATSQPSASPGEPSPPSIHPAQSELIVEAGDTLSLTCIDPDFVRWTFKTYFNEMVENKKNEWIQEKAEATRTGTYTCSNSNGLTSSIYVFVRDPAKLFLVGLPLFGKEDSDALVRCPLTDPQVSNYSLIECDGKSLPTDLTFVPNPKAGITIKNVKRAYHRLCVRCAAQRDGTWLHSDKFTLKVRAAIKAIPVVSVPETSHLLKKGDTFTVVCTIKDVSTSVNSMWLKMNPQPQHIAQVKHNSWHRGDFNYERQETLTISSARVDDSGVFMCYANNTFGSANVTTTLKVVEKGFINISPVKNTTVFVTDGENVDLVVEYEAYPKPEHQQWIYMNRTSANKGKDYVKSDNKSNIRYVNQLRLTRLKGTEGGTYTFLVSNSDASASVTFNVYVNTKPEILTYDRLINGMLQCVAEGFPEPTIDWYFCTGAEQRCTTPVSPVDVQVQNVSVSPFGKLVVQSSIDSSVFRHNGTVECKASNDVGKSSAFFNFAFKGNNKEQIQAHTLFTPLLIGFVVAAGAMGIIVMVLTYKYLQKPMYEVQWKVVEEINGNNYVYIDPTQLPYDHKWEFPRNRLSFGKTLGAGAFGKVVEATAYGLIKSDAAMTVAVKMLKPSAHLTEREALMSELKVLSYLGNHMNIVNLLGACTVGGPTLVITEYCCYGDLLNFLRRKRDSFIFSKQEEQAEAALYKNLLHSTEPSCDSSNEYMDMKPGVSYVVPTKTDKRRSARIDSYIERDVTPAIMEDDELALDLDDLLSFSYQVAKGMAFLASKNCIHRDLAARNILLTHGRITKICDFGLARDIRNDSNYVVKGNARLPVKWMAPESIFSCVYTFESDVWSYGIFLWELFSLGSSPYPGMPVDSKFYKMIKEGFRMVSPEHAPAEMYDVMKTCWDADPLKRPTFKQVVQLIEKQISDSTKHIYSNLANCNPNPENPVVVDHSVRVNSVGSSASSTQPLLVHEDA
Mast/stem cell growth factor receptor Kit (Homo sapiens), P10721 [K642E], sequence (P10721 whole entry K642E): as the sequence (P10721 whole entry T670I) above, with K642E, I670T counted along it
Mast/stem cell growth factor receptor Kit (Homo sapiens), P10721 [V559G], sequence (P10721 whole entry V559G): as the sequence (P10721 whole entry T670I) above, with V559G, I670T counted along it
Mast/stem cell growth factor receptor Kit (Homo sapiens), P10721 [Y823D], sequence (P10721 whole entry Y823D): as the sequence (P10721 whole entry T670I) above, with I670T, Y823D counted along it
Mast/stem cell growth factor receptor Kit (Homo sapiens), P10721 [D820Y], sequence (P10721 whole entry D820Y): as the sequence (P10721 whole entry T670I) above, with I670T, D820Y counted along it
Mast/stem cell growth factor receptor Kit (Homo sapiens), P10721 [V559A], sequence (P10721 whole entry V559A): as the sequence (P10721 whole entry T670I) above, with V559A, I670T counted along it
Mast/stem cell growth factor receptor Kit (Homo sapiens), P10721 [UNDEFINED MUTATION], sequence (P10721 whole entry, looked up, stated change not applied): as the sequence (P10721 whole entry T670I) above, with I670T counted along it

SMILES	GI50 [1] [nM]	GI50 at 72 h [2] [nM]	GI50 [3] [nM]	other results
COc1cc2nccc(Oc3ccc(NC(=O)Cc4ccc(F)c(C(F)(F)F)c4)cc3)c2cc1OC	24	1030	13	–
COc1cc2nccc(Oc3ccc(NC(=O)Cc4ccc(C)c(C)c4)cc3)c2cc1OC	27	6420	15	–
COc1cc2nccc(Oc3ccc(NC(=O)Cc4ccc(Cl)c(C(F)(F)F)c4)cc3C)c2cc1OC	105	7050	9	–
COc1cc2nccc(Oc3ccc(NC(=O)Cc4ccc(F)c(F)c4)cc3)c2cc1OC	312	670	309	–
Cc1ccc(NC(=O)c2ccc(CN3CCN(C)CC3)cc2)cc1Nc1nccc(-c2cccnc2)n1 [IMATINIB]	350	> 10000	–	GI50 [4]: 8 nM; GI50 [5]: 4080 nM; GI50 [6]: 48 nM; GI50 [7]: 15 nM; GI50 [8]: 905 nM; GI50 [9]: 174 nM; GI50 [10]: 435 nM; GI50 [11]: 115 nM; inhibition in vivo at 100 mg/kg/day [12]: 66.4%; Activity [13]: 1.54 g; GI50 [14]: 5870 nM; GI50 [15]: 337 nM; Activity [16]: Active; GI50 [17]: > 10000 nM; GI50 [18]: > 10000 nM; GI50 [19]: 608 nM
COc1cc2nccc(Oc3ccc(NC(=O)Cc4c(F)cccc4F)cc3)c2cc1OC	2780	1930	1700	–
COc1cccc(CC(=O)Nc2ccc(Oc3ccnc4cc(OC)c(OC)cc34)cc2)c1	293	2780	339	–
Cc1ccc(NC(=O)c2ccc(CN(CCN(C)C)C(=O)c3ccccn3)cc2)cc1Nc1nccc(-c2cccnc2)n1	–	–	–	inhibition [20]: Active; inhibition [21]: Active; inhibition [22]: Active; inhibition [23]: Active; inhibition [24]: Active; Activity [16]: Active; inhibition [25]: Active; inhibition [26]: Active
COc1cc2nccc(Oc3ccc(NC(=O)Cc4ccccc4C(F)(F)F)cc3)c2cc1OC	424	6700	309	–
COc1cc2nccc(Oc3ccc(C(=O)NCc4ccc(C(F)(F)F)cc4)cc3)c2cc1OC	2900	6180	668	–
COc1cc2nccc(Oc3ccc(NC(=O)Cc4ccc(Cl)c(C(F)(F)F)c4)c(C)c3)c2cc1OC	61	4860	75	–
COc1cc2nccc(Oc3ccc(C(=O)NCc4cccc(C(F)(F)F)c4)cc3)c2cc1OC	2350	10000	4610	–
COc1cc2nccc(Sc3ccc(NC(=O)Cc4ccc(Cl)c(C(F)(F)F)c4)cc3)c2cc1OC	154	3090	110	–
COc1ccc(CC(=O)Nc2ccc(Oc3ccnc4cc(OC)c(OC)cc34)cc2)cc1OC	319	4130	179	–
COc1cc2nccc(Oc3ccc(NC(=O)Cc4ccc(Cl)c(Cl)c4)cc3)c2cc1OC	342	2030	37	–
COc1cc2nccc(Oc3ccc(NC(=O)Cc4cccc(C(F)(F)F)c4)cc3)c2cc1OC	20	1890	1	–
COc1cc2nccc(Oc3ccc(NC(=O)Cc4ccc(Cl)c(C(F)(F)F)c4)c(F)c3)c2cc1OC	49	3210	18	–
COc1cc2nccc(Oc3ccc(NC(=O)Cc4ccc(Cl)c(C(F)(F)F)c4)cc3F)c2cc1OC	116	1990	21	–
COc1cc2nccc(Oc3ccc(NC(=O)CC4CCCCC4)cc3)c2cc1OC	635	2470	362	–

SMILES	GI50 [1] [nM]	GI50 at 72 h [2] [nM]	GI50 [3] [nM]	other results
COc1cc2nccc(Oc3ccc(NC(=O)Cc4ccc5ccccc5c4)cc3)c2cc1OC	112	6230	34	–
COc1cc2nccc(Oc3ccc(NC(=O)Cc4ccc5c(c4)OCO5)cc3)c2cc1OC	110	3100	167	–
COc1cc2nccc(Oc3ccc(NC(=O)Cc4ccncc4)cc3)c2cc1OC	4710	5130	6990	–
COc1cc2nccc(Oc3ccc(NC(=O)Cc4ccc(Cl)c(C(F)(F)F)c4)cc3C(F)(F)F)c2cc1OC	3000	2920	2840	–
COc1cc2nccc(Oc3ccc(NC(=O)C4(c5ccccc5)CC4)cc3)c2cc1OC	> 10000	> 10000	> 10000	–
COc1cc2nccc(Oc3ccc(NC(=O)CN4CCN(C)CC4)cc3)c2cc1OC	7330	8700	8520	–
COc1cc2nccc(Oc3ccc(NC(=O)Cc4ccc(C(F)(F)F)cc4)cc3)c2cc1OC	22	2160	11	–
COc1cc2nccc(Oc3ccc(NC(=O)Cc4ccc(Cl)c(C(F)(F)F)c4)cc3OC)c2cc1OC	34	8480	1560	–
COc1cc2nccc(Oc3ccc(NC(=O)Cc4ccc(F)cc4F)cc3)c2cc1OC	40	704	285	–
CCC(=O)NCC1CCN(c2ccc(NC(=O)Nc3cccc(Oc4ccnc5cc(OC)c(OC)cc45)c3)cc2C(F)(F)F)CC1	57	> 10000	–	–
COc1cc2nccc(Oc3ccc(NC(=O)Cc4ccc(C)c(C(F)(F)F)c4)cc3)c2cc1OC	17	7260	14	–
COc1cc2nccc(Oc3ccc(NC(=O)Cc4cccc(F)c4)cc3)c2cc1OC	923	1000	342	–
COc1cc2nccc(Oc3ccc(NC(=O)Cc4ccccc4)cc3)c2cc1OC	> 10000	> 10000	> 10000	–
COc1cc2nccc(Oc3ccc(NC(=O)Cc4ccc(Cl)c(C(F)(F)F)c4)cc3C#N)c2cc1OC	989	9970	210	–
COc1cc2nccc(Nc3ccc(NC(=O)Cc4ccc(Cl)c(C(F)(F)F)c4)cc3)c2cc1OC	742	2210	400	–
COc1cc2nccc(Oc3ccc(NC(=O)Cc4ccc(Cl)c(C(F)(F)F)c4)cc3Cl)c2cc1OC	78	9450	56	–
COc1cc2nccc(Oc3ccc(NC(=O)Cc4ccc(Cl)c(C(F)(F)F)c4)c(Cl)c3)c2cc1OC	81	8220	70	–
COc1cc2nccc(N(C)c3ccc(NC(=O)Cc4ccc(Cl)c(C(F)(F)F)c4)cc3)c2cc1OC	4280	2670	8460	–
